From patent US5102871A, “Nutrient composition” (Kyowa Hakko Kogyo Co., Ltd., priority 1989, dated 1992)
Blank lines part the entries; values can stand above or below the molecule they belong to. Bridge positions count the residues as written; N and C are the ends. Peptide text beside a SMILES is read from it. I, II: the chains in the order shown.

Legend:
[1] = In vitro hydrolysis in human plasma; format: in vitro ADME; details: 37° C., 30 minutes; for remaining at 0.5 h, 2.18 mM: read-out: Residual amount in plasma (%)
Procedure: It was thus recognized that there was a clear difference between these peptides with respect to utilization in vivo.
To 100 μl of plasma collected and prepared from human was added 10 μl of a 24 mM solution of a peptide in physiological saline. After reaction at 37° C. for 30 minutes, the amount of the remaining peptide was determined.

[2] = administered subcutaneously to mice; Anderson and Meister 1983; cited from earlier work
[3] = Uptake by mouse kidney after tail vein administration; format: in vivo, C3H/He mice; details: 250 μmoles/kg tail vein, mean (SEM on next line)
Procedure: Uptake of γ-Glu-Cys-Cys and (γ-Glu-Cys)2 by mouse kidney was compared with that of (Ala-Cys)2 according to the test method described below.
Physiological saline solutions of γ-Glu-Cys-Cys, (γ-Glu-Cys)2 and (Ala-Cys)2 were administered respectively to groups of C3H/He mice (6 weeks of age, male, weighing 22 g) through the tail vein in a dose of 250 μmoles/kg body weight, and the kidney was excised 1, 5 and 20 minutes after the administration, followed by determination of glutamic acid, alanine and cystine in the kidney.

[4] = target: T1, γ-glutamyltransferase prepared from swine kidney (Sus scrofa, UniProt P20735); experiment: Hydrolysis by γ-glutamyltransferase; format: biochemical; details: 5 mM peptide, Tris-hydrochloride buffer pH 7, 37° C., 120 minutes
T1 construct: γ-glutamyltransferase prepared from swine kidney; from tissue; host or cells: swine kidney
T1 sequence (P20735 1-379 limits assumed): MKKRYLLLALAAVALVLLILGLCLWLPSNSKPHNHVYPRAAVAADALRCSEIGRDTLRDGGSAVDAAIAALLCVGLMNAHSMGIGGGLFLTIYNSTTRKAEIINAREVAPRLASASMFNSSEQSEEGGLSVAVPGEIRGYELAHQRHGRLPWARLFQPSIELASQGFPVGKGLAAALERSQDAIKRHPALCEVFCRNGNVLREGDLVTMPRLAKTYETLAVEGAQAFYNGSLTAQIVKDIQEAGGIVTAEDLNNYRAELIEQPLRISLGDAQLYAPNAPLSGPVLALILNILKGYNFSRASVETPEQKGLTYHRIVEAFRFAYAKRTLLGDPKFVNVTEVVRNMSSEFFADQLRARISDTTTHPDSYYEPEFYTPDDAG
T1 sequence (P20735 380-568 limits assumed): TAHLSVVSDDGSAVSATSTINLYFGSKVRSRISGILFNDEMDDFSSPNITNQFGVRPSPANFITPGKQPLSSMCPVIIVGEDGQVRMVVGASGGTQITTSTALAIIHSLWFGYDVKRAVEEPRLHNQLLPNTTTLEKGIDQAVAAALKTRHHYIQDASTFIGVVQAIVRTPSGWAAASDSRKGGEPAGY
Procedure: It was thus recognized that there was a difference between these peptides with respect to utilization in vivo.
A peptide was dissolved in Tris-hydrochloride buffer solution (pH 7) in a concentration of 5 mM and γ-glutamyltransferase prepared from swine kidney was added to the solution. After reaction at 37° C. for 120 minutes, the amount of the remaining peptide was determined.

Solubility in water = format: physicochemical; details: pH 6.5, 25° C.
From the text: The solubility of γ-Glu-Cys-Cys and (γ-Glu-Cys)2 was compared with that of cystine and known cystine-containing peptides.

[5] = Stability in solution on heat treatment and on standing; format: physicochemical; details: 10 mM
[6] = In vitro hydrolysis in mouse plasma; format: in vitro ADME, C3H/He mouse; details: 37° C., 30 minutes; for remaining at 0.5 h, 2.46 mM: male, C3H/He mouse plasma, mean of five mice, read-out: Residual amount in plasma (%)
Procedure: To 50 μl of plasma collected and prepared from C3H/He mouse (6 weeks of age, male, weighing 22 g) was added 5 μl of a 27.1 mM solution of a peptide in physiological saline, followed by reaction at 37° C. for 30 minutes.

[7] = 25° C.; background statement; cited from earlier work
[8] = Stability on heating in jelly-like nutrient preparation (Example 3); format: physicochemical; details: 100° C. for 30 minutes, Example 3 composition

SMILES: N[C@@H](CSSC[C@H](N)C(=O)O)C(=O)O [Cystine, L-cystine]
Solubility in 1000 ml of water (Solubility in water): 0.1 g
solubility in water [7]: less than 0.11 g/l

SMILES: C[C@H](NC(=O)[C@@H](N)CSSC[C@H](N)C(=O)N[C@@H](C)C(=O)O)C(=O)O [(Cys-Ala)2, L-cysteinyl-bis-L-alanine] (I: H-Cys-Ala-OH / II: H-Cys-Ala-OH; disulfide I:1-II:1)
Solubility in 1000 ml of water (Solubility in water): 8.1 g

SMILES: N[C@@H](CS)C(=O)NCCCC[C@H](NC(=O)[C@@H](N)CS)C(=O)O [Cys-Lys(Cys), N^2 -cysteinyl-N^6 -L-cysteinyl-L-lysine] (H-Cys-Lys(Cys)-OH)
Solubility in 1000 ml of water (Solubility in water): > 50 g

SMILES: NCC(=O)N[C@@H](CSSC[C@H](NC(=O)CN)C(=O)O)C(=O)O [(Gly-Cys)2, bis-glycyl-L-cystine, reference compound] (I: H-Gly-Cys-OH / II: H-Gly-Cys-OH; disulfide I:2-II:2)
remaining at 0.5 h, 2.18 mM [1]: 35%
Solubility in 1000 ml of water (Solubility in water): > 50 g

The next lines start with results.

remaining at 0.5 h, 2.18 mM [1]: 85%
Glu (glutamic acid) in kidney ([3]; 0 min after administration): 5.54 μmole/g wet weight of kidney
Glu (glutamic acid) in kidney ([3]; 1 min after administration): 14.82 μmole/g wet weight of kidney
Glu (glutamic acid) in kidney ([3]; 5 min after administration): 22.5 μmole/g wet weight of kidney
Glu (glutamic acid) in kidney ([3]; 20 min after administration): 18.14 μmole/g wet weight of kidney
Hydrolysis by γ-glutamyltransferase [4]: almost completely hydrolyzed
Solubility in 1000 ml of water (Solubility in water): > 70 g
Decomposition on standing ([5]; pH 6.5, 40° C. for 60 days): not decomposed
Decomposition by heat treatment ([5]; pH 6.5, 110° C. for 20 minutes): hardly decomposed
remaining at 0.5 h, 2.46 mM [6]: 84%
SMILES: N[C@@H](CCC(=O)N[C@@H](CSSC[C@H](NC(=O)CC[C@H](N)C(=O)O)C(=O)O)C(=O)O)C(=O)O [(γ-Glu-Cys)2, L-glutamyl-L-cysteine disulfide]
Hydrolysis in human plasma [1]: hydrolyzed in plasma only with difficulty
Utilization in the synthesis of kidney glutathione [2]: can be utilized in the synthesis of kidney glutathione
Hydrolysis in mouse plasma [6]: hydrolyzed in plasma only with difficulty

remaining at 0.5 h, 2.18 mM [1]: 26%
Ala (alanine) in kidney ([3]; 0 min after administration): 2.33 μmole/g wet weight of kidney
Ala (alanine) in kidney ([3]; 1 min after administration): 2.87 μmole/g wet weight of kidney
Ala (alanine) in kidney ([3]; 5 min after administration): 2.59 μmole/g wet weight of kidney
Ala (alanine) in kidney ([3]; 20 min after administration): 2.16 μmole/g wet weight of kidney
Hydrolysis by γ-glutamyltransferase [4]: not hydrolyzed
Solubility in 1000 ml of water (Solubility in water): > 50 g
remaining at 0.5 h, 2.46 mM [6]: 0%
SMILES: C[C@H](N)C(=O)N[C@@H](CSSC[C@H](NC(=O)[C@H](C)N)C(=O)O)C(=O)O [(Ala-Cys)2, bis-α-L-alanyl-L-cystine, reference compound] (I: H-Ala-Cys-OH / II: H-Ala-Cys-OH; disulfide I:2-II:2)

remaining at 0.5 h, 2.18 mM [1]: 67%
Glu (glutamic acid) in kidney ([3]; 0 min after administration): 5.54 μmole/g wet weight of kidney
Glu (glutamic acid) in kidney ([3]; 1 min after administration): 13.09 μmole/g wet weight of kidney
Glu (glutamic acid) in kidney ([3]; 5 min after administration): 20.32 μmole/g wet weight of kidney
Glu (glutamic acid) in kidney ([3]; 20 min after administration): 15.1 μmole/g wet weight of kidney
Solubility in 1000 ml of water (Solubility in water): > 70 g
remaining at 0.5 h, 2.46 mM [6]: 53%
Stability under heating of the jelly-like preparation [8]: stably maintained
SMILES: N[C@@H](CCC(=O)N[C@@H](CSSC[C@H](N)C(=O)O)C(=O)O)C(=O)O [γ-Glu-Cys-Cys]
Hydrolysis in human plasma [1]: hydrolyzed in plasma only with difficulty
Hydrolysis in mouse plasma [6]: hydrolyzed in plasma only with difficulty

remaining at 0.5 h, 2.18 mM [1]: 30%
Hydrolysis by γ-glutamyltransferase [4]: not hydrolyzed
Solubility in 1000 ml of water (Solubility in water): > 50 g
SMILES: N[C@@H](CC(=O)O)C(=O)N[C@@H](CSSC[C@H](NC(=O)[C@@H](N)CC(=O)O)C(=O)O)C(=O)O [(Asp-Cys)2, N,N'-bis-α-aspartyl-L-cystine] (I: H-Asp-Cys-OH / II: H-Asp-Cys-OH; disulfide I:2-II:2)
